Measurements from ChEMBL document CHEMBL1208710, “NF-kappaB inducing kinase (NIK) inhibitors: identification of new scaffolds using virtual screening” (Bioorg Med Chem Lett, 2010).
pIC50: −log10 of the molar value.

Legend:
[1] = molecular target: T1, Mitogen-activated protein kinase kinase kinase 14 (Homo sapiens, UniProt Q99558); test: Inhibition of human recombinant GST-fused NIK expressed in Sf9 cells at 50 uM after 60 mins by radiometric protein kinase assay
Target sequence in this assay (Q99558 whole entry, looked up, the tested form may be a part): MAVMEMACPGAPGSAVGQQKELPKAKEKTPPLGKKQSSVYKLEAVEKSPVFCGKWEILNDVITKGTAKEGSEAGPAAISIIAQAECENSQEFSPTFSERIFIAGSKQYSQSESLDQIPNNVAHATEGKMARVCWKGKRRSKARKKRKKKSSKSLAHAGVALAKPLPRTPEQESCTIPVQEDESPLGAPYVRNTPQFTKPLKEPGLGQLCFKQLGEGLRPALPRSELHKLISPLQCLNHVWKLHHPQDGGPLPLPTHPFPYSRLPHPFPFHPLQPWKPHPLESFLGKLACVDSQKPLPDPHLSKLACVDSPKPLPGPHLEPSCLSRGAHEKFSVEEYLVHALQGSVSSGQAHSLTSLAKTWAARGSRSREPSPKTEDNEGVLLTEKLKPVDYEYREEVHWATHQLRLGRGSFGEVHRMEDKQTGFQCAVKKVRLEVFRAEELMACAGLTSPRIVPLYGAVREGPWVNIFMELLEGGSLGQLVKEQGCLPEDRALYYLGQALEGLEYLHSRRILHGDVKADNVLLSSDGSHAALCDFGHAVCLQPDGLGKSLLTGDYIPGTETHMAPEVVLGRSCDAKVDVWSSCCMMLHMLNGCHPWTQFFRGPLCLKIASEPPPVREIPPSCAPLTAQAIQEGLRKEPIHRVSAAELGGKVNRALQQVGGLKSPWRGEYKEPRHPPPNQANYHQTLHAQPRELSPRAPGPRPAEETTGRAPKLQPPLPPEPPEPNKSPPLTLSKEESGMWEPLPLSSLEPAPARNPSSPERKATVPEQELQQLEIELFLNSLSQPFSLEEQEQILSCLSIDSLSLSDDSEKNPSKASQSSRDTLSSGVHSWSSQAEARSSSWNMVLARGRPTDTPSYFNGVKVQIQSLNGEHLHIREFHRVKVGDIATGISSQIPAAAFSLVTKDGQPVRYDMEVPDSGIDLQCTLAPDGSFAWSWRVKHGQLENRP

[2] = molecular target: T1, Mitogen-activated protein kinase kinase kinase 14; test: Inhibition of human recombinant GST-fused NIK expressed in Sf9 cells after 60 mins by radiometric protein kinase assay
Target sequence in this assay (Q99558 whole entry, the tested form may be a part): as the sequence (Q99558 whole entry, looked up, the tested form may be a part) above

inhibition [1] | pIC50 [2] | SMILES
< 15% |  | O=C(Cn1c(=O)[nH]c(=O)c2ccccc21)NCc1ccccn1
60% | 4.29 | O=C1Cc2ccccc2C(=O)N1
53% | 4.05 | O=C1CC2CC(=O)NC(=O)C2C(=O)N1 (stereo unspecified)
< 15% |  | CN(C)c1ccc(CNC(=O)Cn2c(=O)[nH]c(=O)c3ccccc32)cc1
< 15% |  | CC(NC(=O)Cn1c(=O)[nH]c(=O)c2ccccc21)c1cccs1 (stereo unspecified)
44% | < 4.30 | CCO/C=C1/C(=O)NC(=O)c2ccccc21
< 15% |  | CCOC(=O)N1CCC(NC(=O)Cn2c(=O)[nH]c(=O)c3ccccc32)CC1
 | < 4.00 | O=C1Cc2ccccc2CN1
 | < 4.00 | O=c1[nH]c(=O)c2c(Cl)cc(Cl)cc2[nH]1
25% | < 4.00 | O=C1NC(=O)c2ccccc2/C1=C\c1cccs1

SMILES | inhibition [1] | pIC50 [2]
CC1=CC(=O)c2c(O)cccc2C1=O [PLUMBAGIN] | 60% | < 4.00
